SMILES strings stand for the structures.

Assay [1] concerns thrombin generation in pooled normal plasma. Kind of assay: Calibrated Automated Thrombogram thrombin generation assay in pooled normal plasma. It is filed as biochemical, human.
Assay [2] has as its system plasma deficient in coagulation factor VIII. The assay can be described thus: Thrombin generation assay in plasma deficient in coagulation factor VIII. It is filed as biochemical, human. Here is the method:
FIG. 20: Plasma deficient in coagulation factor VIII was spiked with cyclodextrin OKL-1111 (A), OKL-1180 (B), and OKL-1187 (C) at the indicated concentrations.
(§1) The Calibrated Automated Thrombogram® assays the generation of thrombin in clotting plasma using a microtiter plate reading fluorometer (Fluoroskan Ascent, ThermoLab systems, Helsinki, Finland) and Thrombinoscope® software (Thrombinoscope BV, Maastricht, The Netherlands). The assay was carried out as described by Hemker et al. (Pathofysiol. IIaemost. Thromb. 2003, 33, 4-15), and the Thrombinoscope® manual. Coagulation was triggered by recalcification in the presence of 1 or 5 pM recombinant human tissue factor (Innovin®, Siemens, Marburg, Germany), 4 μM phospholipids, and 417 μM fluorogenic substrate Z-Gly-Gly-Arg-AMC (Bachem, Bubendorf, Switzerland). Fluorescence was monitored using the Fluoroskan Ascent fluorometer (ThermoLabsystems, Helsinki, Finland), and the lag time, peak thrombin, velocity index and area under the curve (ETP) were calculated using the Thrombinoscope® software (Thrombinoscope BV).

Assay [3] deals with plasma deficient in coagulation factor IX. Kind of assay: Thrombin generation assay in plasma deficient in coagulation factor IX. It is filed as biochemical, human. As for the experimental part: as §1
Assay [4] relates to human plasma deficient in coagulation factor XI. Kind of assay: Thrombin generation assay in human plasma deficient in coagulation factor XI. It is filed as biochemical. As for the experimental part:
as §1

Assay [5] has as its system normal human plasma pretreated with inhibitory antibodies against factor VIII. Kind of assay: Thrombin generation in normal plasma spiked with inhibitory antibodies against factor VIII. Particulars: antibody VK34 14 μg/ml; 1 pM TF. It is filed as biochemical. As for the experimental part: as §1
(§2) Normal plasma was spiked with inhibitory antibodies against factor VIII (Sanquin, VK34, 14 μg/ml), factor IX (Sanquin, 5F5, 20 μg/ml) or factor XI (Sanquin, mix of #203 and #175, 75 μg/ml). The effect of OKL-1111 was tested in thrombin generation assay using 1 pM tissue factor (TF). This model is representative for hemophilia A, B and C patients that have developed inhibitory antibodies against plasma-derived or recombinant factor VIII or IX or XI they are treated with.

For assay [6], the system named is normal human plasma pretreated with inhibitory antibodies against factor IX. Kind of assay: Thrombin generation in normal plasma spiked with inhibitory antibodies against factor IX. Type of assay: biochemical. Particulars: antibody 5F5 20 μg/ml; 1 pM TF. As for the experimental part:
as §1, §2

Assay [7] concerns normal human plasma pretreated with inhibitory antibodies against factor XI. The assay can be described thus: Thrombin generation in normal plasma spiked with inhibitory antibodies against factor XI. The following applies: mix of #203 and #175, 75 μg/ml; 1 pM TF. Type of assay: biochemical. Here is the method: as §1, §2
The test system of assay [8] is plasma of a hemophilia A patient containing anti-FVIII antibodies. The assay can be described thus: Thrombin generation in plasma of a hemophilia A patient with anti-factor VIII antibodies. It is filed as biochemical, human. The following applies: anti-FVIII antibodies 50 BU. As for the experimental part:
FIG. 28: Effect of OKL-1111 (A), OKL-1180 (B) and OKL-1187 (C) on coagulation in plasma of a hemophilia A patient with anti-factor VIII antibodies. BU=Bethesda Units.
as §1
The patient had developed antibodies against factor VIII prior to plasma withdrawal. The plasma contained high levels of anti-FVIII antibodies (50 BU).

In assay [9] the test system is VKA plasma. The assay can be described thus: Thrombin generation in plasma of individuals taking vitamin K antagonists (VKA plasma). Particulars: two intensities of treatment (INR); 1 pM TF. Type of assay: biochemical, human.
Description: FIG. 11: Plasma was used from individuals taking vitamin K-antagonists (VKA plasma). Two different intensities of treatment (given as INR) were available, as depicted in (A) and (B). The plasmas were subjected to thrombin generation analysis as described in the Materials and Methods section with 1 pM tissue factor (TF) as initiator of coagulation.
as §1

Assay [10] has as its system mice anticoagulated with rivaroxaban. The assay can be described thus: In vivo saphenous vein bleeding model in mice anticoagulated with rivaroxaban. The following applies: mice fed rivaroxaban for 4 days; cyclodextrin by tail vein injection 5 min before bleeding assay; OKL-1111 dose expected to give 25 μM in plasma. As for the experimental part:
FIG. 29: In vivo analysis of procoagulant potential of OK-1111 and OKL-1147. Except for controls, animals were treated with rivaroxaban for 4 days and cyclodextrins were administered 5 min prior bleeding assay.
(§3) All animal protocols were approved by the Institutional Animal Care and Use Committee of the University of North Carolina. C57BL6/J mice were purchased from Charles Rivers Laboratories (Willmington, Mass.). Bleeding studies were done essentially as previously described Pastoft et al. (Haemophilia 2012; 18:782-8). Mice were anesthetized with isoflurane throughout all procedures. The hair on the ventral side of both hind limbs was removed. The animals were placed supine on a temperature and ECG monitoring board. The paws were gently restrained by looping soft polyethylene tubing around them and attaching the tubing to the ECG board. The skin on the left and right ventral hind limb was incised which exposes a length of the saphenous neurovascular bundle; the bundle was covered with normal saline to prevent drying. To assess haemostasis, the right saphenous vein was transected by piercing it with a 23-G needle followed by a longitudinal incision made in the distal portion of the vessel. Blood was gently wicked away until haemostasis occurred. The clot was then removed to restart bleeding and the blood was again wicked away until haemostasis occurs again. Clot disruption was repeated after every incidence of haemostasis for 30 minutes. Mice were fed chow that contained 0.1 mg rivaroxaban per g of chow. The mice were on this diet for 4 days to allow them to reach a steady state. Cyclodextrins were administered by a tail vein injection 5 minutes before the start of the bleeding assay. Two parameters were measured: 1) the number of times that haemostasis occurs in a 30 minute period, and 2) the time required for each haemostasis.

Assay [11] deals with Hemophilia A mice. The assay can be described thus: In vivo vena saphena bleeding model in hemophilia A mice.
Description: FIG. 30: Effect of OKL-1111 and OKL-1187 on coagulation in mouse hemophilia A assay.
as §3, with “Clot disruption was repeated after every incidence of haemostasis for 30 minutes. Mice were fed chow that contained 0.1 mg rivaroxaban per g of chow. The mice were on this diet for 4 days to allow them to reach a steady state. Cyclodextrins were administered by a tail vein injection 5 minutes before the start of the bleeding assay.” left out, “haemostasis. […]” for “haemostasis.”

Setting [12] is: normal plasma, versus absence of cyclodextrin.

`O=C(O)CCCCCSCC1OC2OC3C(CSCCCCCC(=O)O)OC(OC4C(CSCCCCCC(=O)O)OC(OC5C(CSCCCCCC(=O)O)OC(OC6C(CSCCCCCC(=O)O)OC(OC7C(CSCCCCCC(=O)O)OC(OC8C(CSCCCCCC(=O)O)OC(OC9C(CSCCCCCC(=O)O)OC(OC1C(O)C2O)C(O)C9O)C(O)C8O)C(O)C7O)C(O)C6O)C(O)C5O)C(O)C4O)C(O)C3O` (centres unmarked) [OKL-1111]: the “procoagulant effect in normal plasma” value in [1] (no anticoagulant, cyclodextrin 100 μM unless otherwise indicated, 1 pM TF) was “very strong procoagulant effects”. Moreover, in assay [1] (setting [12]), the lag time entry was “considerably shorter” and the peak thrombin result is given as “largely increased”. Besides, the “procoagulant effect in factor VIII deficient plasma” value in assay [2] is “stimulate coagulation significantly”. Besides, the “procoagulant activity in factor IX deficient plasma” value in assay [3] is “stimulate coagulation significantly”. For the same molecule, the “stimulation of coagulation in factor XI deficient plasma” value in assay [4] is “stimulate coagulation significantly”. Moreover, the “thrombin generation in plasma with inhibitory antibodies against factor VIII” value in assay [5] is listed as “concentration-dependently stimulated thrombin generation”. Also, the “thrombin generation in plasma with inhibitory antibodies against factor IX” value in [6] was “concentration-dependently stimulated thrombin generation”. For the same molecule, the “thrombin generation in plasma with inhibitory antibodies against factor XI” value in assay [7] was “concentration-dependently stimulated thrombin generation”. The “thrombin generation in hemophilia A patient plasma” value in [8] is recorded as “concentration-dependently stimulated thrombin generation”. Further, the “thrombin generation in plasma of patients using vitamin K antagonists” value in [9] is listed as “could be improved”. Further, the clotting times result in assay [10] is “normalization of the clotting times”. Moreover, in assay [11] (factor VIII 2.5 IU/kg plus OKL-1111 1 μmol/kg), the “hemostasis compared to factor VIII alone” value is on record as “significantly higher”. In addition, the “number of clots formed over a 30 minute period” value in assay [11] (factor VIII 2.5 IU/kg plus OKL-1111 1 μmol/kg (designed to give 25 μM in plasma)) is reported as 7-9 clots.

Values taken from patent US10813944B2, “Cyclodextrins as procoagulants” (STICHTING SANQUIN BLOEDVOORZIENING, priority 2016, dated 2020).
